The series is described as follows: Kcat value was determined. It counts as ADME.

The text below walks through data of ChEMBL document CHEMBL1144862, “A mechanism for substrate-Induced formation of 6-hydroxyflavin mononucleotide catalyzed by C30A trimethylamine dehydrogenase” (Bioorg Med Chem Lett, 2003).

The structures appear in SMILES notation.

`Cc1cc2c(nc3c(=O)[nH]c(=O)nc-3n2C[C@@H](O)[C@@H](O)[C@@H](O)COP(=O)(O)O)c(O)c1C` yielded a k cat of less than 2.
